Reference: patent US7206699B2, “Methods for measuring therapy resistance” (Virco N.V., priority 2000, dated 2007)
Like-named read-outs stand apart in the source and are kept apart here.

System: HIV-1
Conditions: for Geometric Mean Phenotype: fold change in IC50 vs wild type; for Average Phenotype (log): log fold change
[1] = RT codon 41 ANY, 184 ANY, 215 ANY, N 13255
[2] = RT codon 41 L, 184 WT, 215 WT, N 54
[3] = RT codon 41 WT, 184 V/I, 215 F/Y, N 673
[4] = RT codon 41 WT, 184 V/I, 215 WT, N 2172
[5] = RT codon 41 WT, 184 WT, 215 WT, N 4826

From the text: The whole process can be divided into three phases: molecular biology, transfection and susceptibility testing.
• Viral RNA fragments extracted from patient's blood sample • Complementary DNA (cDNA) of the gag-PR-RT sequence, through to codon 400 formed via reverse transcription • Gag-PT-RT sequence multiplied using two rounds of PCR • Purification of the DNA fragments • Creation of laboratory proviral clone with gag-PR-RT sequence deleted • Insertion of the clone into bacterial plasmids for reproduction of large quantities. Transfection This is the process by which viral genes are transferred to a cell. • 1. The gag-PR-RT sequences from the patient sample and the plasmid fragments are mixed with CD4+, MT4 cells. • 2. Electroporation takes place: the cells are subject to a short (milliseconds), but strong current in a cuvette producing transient openings in the cell membrane, through which both the gag-PR-RT DNA fragment and the plasmid fragment enter. • 3. In a relatively small proportion of the cells, both fragments will meet up and, probably supported by a cellular enzyme, recombine to form a complete HIV-1 genome that can now be converted into infectious virus particles. • 4. The recombinant virus is then grown in this cell culture for approximately 8 days, until the cytopathogenic effect or CPE reaches a sufficient level. • 5. The medium is then centrifuged to separate out the cells and the supernatant contains large quantities of recombinant virus—the virus stock harvest. • 6. The virus is then titrated to achieve a known concentration. Susceptibility Testing
Different concentrations of the antiviral agents are placed in the 384 microwells of a microtiter test plate. Several wells are used for each concentration and the mean results used to increase reliability. • 2. A set dilution of the recombinant virus stock or wild type control virus is added to each microwell. • 3. A set dilution of MT4 cells containing a fluorescent reporter gene system is also added to each microwell. • 4. The plate is incubated for 3 days during which time the recombinant virus will replicate in the MT4 cells unless inhibited by the antiviral drug. Replication triggers the reporter gene, which produces proteins which fluoresce. • 5. The amount of viral replication at each concentration of drug is measured by computerized spectrophotometry, relative to the wild type virus controls. • 6. The susceptibility of the virus to each drug is expressed as a fold change in IC50 relative to wild type virus. • 7.
Plasma samples were obtained from patients and submitted to laboratories for routine assessment of drug susceptibility.

Cc1cn([C@H]2C[C@H](N=[N+]=[N-])[C@@H](CO)O2)c(=O)[nH]c1=O [AZT, zidovudine]
Geometric Mean Phenotype [1]: 3.9 fold | Geometric Mean Phenotype [2]: 1.7 fold | Geometric Mean Phenotype [3]: 6.2 fold | Geometric Mean Phenotype [4]: 1.3 fold | Geometric Mean Phenotype [5]: 1.3 fold | mean fold resistance, increase (genetic clusters with multiple mutations conferring AZT resistance, FIG. 8): ~100 fold | effect of including the 184V mutation together with AZT resistance mutations (genetic clusters with vs without 184V/I, FIG. 8): substantial reduction in the predicted magnitude of AZT resistance | Average Phenotype (log) [1]: 0.59 | Average Phenotype (log) [2]: 0.24 | Average Phenotype (log) [3]: 0.79 | Average Phenotype (log) [4]: 0.10 | Average Phenotype (log) [5]: 0.12 | mean fold resistance of genetic cluster, in words (virus harbouring the 184V mutation, FIG. 8): slightly reduced level of susceptibility
